The EC50 is the concentration that produces a half-maximal response. As a reminder, the IC50 is the concentration that inhibits the measured activity by half.

Values joined by “and” are separate entries in the source; they are usually repeats but may differ in a detail not shown here. Equal entries are not always repeated. Active and inactive are the calls of the source.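 Rule for the calls: active = compounds giving half or more protection of infected cells from virus-caused growth loss, again on retest; inactive = the rest.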 *1 amine or outer side, *2 acyl side, *3 side chain or, on linkers, in order; H or OH if unused. Where a SMILES comes first, the peptide text is derived from it. [ ]: non-standard residue; d: D form. The star is where a group is joined. X3 = CC(=O)N(C)SCC(N[*:1])C(=O)[*:2]; X20 = CC(=O)N(C)SCC(N*)/C(O)=N\O; Cbz = O=C(OCc1ccccc1)*; Bn = c1ccc(C*)cc1; For = O=C*

The subject of the assay is CEM cells HIV-1 protection, formazan growth assay. As to the kind of experiment: NCI AIDS Antiviral Assay. The settings on record: for IC50: measured here: growth of uninfected CEM cells. Put shortly:
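Five concentrations of each compound were applied to infected and uninfected human CEM cells. Protection from HIV-1 was judged from growth measured with a soluble formazan assay.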

Take `COc1ccc(N2C(=O)CC(c3c[nH]c4ncccc34)C2=O)cc1` (stereo unspecified): the EC50 is greater than 200 µM and the IC50 was 42.7 µM.
Take `CC1(C)C2CC(=O)C1(C)C(O)C2Br` (stereo unspecified): the outcome was inactive.
Turning to `COc1ccc2nc3c([N+](=O)[O-])ccc4c3c(c2c1)N=CN4CCCN(C)C`, the EC50 was 0.141 µM and the IC50 came out at 0.468 µM.
Consider `O=C(O)c1ccccc1C(=O)c1ccc(F)cc1`, for which the result was inactive.
As for `S=C1N/N=C/NN/C=N/N1`, the EC50 was greater than 562 µM and the IC50 turned out to be 282 µM.
Consider `CC(C)=CCC/C(C)=C\CCC1(C)OC(=O)C2CC21` (stereo unspecified), for which the EC50 is greater than 200 µM; the IC50 was 81.3 µM and 36.3 µM.
On to `CCOC(=O)NC(=O)c1cn(CCN2CCN(C(=O)CCCCCCCCCCNc3ncnc4c3ncn4C3OC(CO)C(O)C3O)CC2)c(=O)[nH]c1=O` (stereo unspecified), for which the outcome was inactive.
Take `C/C(CC1C2CCCC1C2)=N\NC(N)=O` (stereo unspecified): the EC50 was greater than 100 µM and the IC50 was greater than 100 µM.
Take `CC1=NN(c2ccc(S(=O)(=O)O)cc2)C(=O)C1N=Nc1ccc(-c2ccc(N=Nc3ccc(OS(=O)(=O)c4ccc(C)cc4)cc3)c(S(=O)(=O)O)c2)cc1` (stereo unspecified): the EC50 was 100 µM and the IC50 stood at 151 µM.
For the compound `CCSc1nn(-c2c3ccccc3nc3ccccc23)c(=S)s1`, the EC50 is greater than 200 µM and the IC50 was found to be 102 µM.
The corresponding values for `O=S(=O)(c1ccccc1)C(c1ccc2ccccc2n1)S(=O)(=O)c1ccccc1` are greater than 200 µM and 41.7 µM.
The corresponding values for `CN(C)CCC1(C)OCCC2=C1Cc1ccccc12` (stereo unspecified) are greater than 200 µM and 135 µM.
As for `N#C/C(C(=O)Nc1ccccc1)=C(/N)N1CCCCC1`, the EC50 is greater than 200 µM and the half-inhibitory concentration (IC50) was greater than 200 µM.
As to `O=Cc1cn(S(=O)(=O)c2ccccc2)c2ccccc12`, the result was inactive.
Turning to `Cc1cccc(NC(=S)Nc2cccc(Cl)c2)n1`, the EC50 is greater than 200 µM and the 50% inhibitory concentration (IC50) was greater than 200 µM.
Regarding `O=C(NNC(=O)c1ccccn1)c1ccccn1`, the EC50 is greater than 200 µM and the IC50 was 4.68 µM.
For `C=C(C)[C@@]1(O)CCCC[C@@H]1CC(Sc1ccccc1)Sc1ccccc1` the same measures were greater than 200 µM and 19.1 µM.
The corresponding values for `COc1cc(/C=N/NC2=NCCCN2)ccc1O` are greater than 200 µM and greater than 200 µM.
For `CN(C)CCCn1c2c3ccccc3ccc2c2oc(=O)c3ccccc3c21`, the EC50 is greater than 33.1 µM and the IC50 worked out at 1.62 µM.
With `O=C1C2=Cc3ccccc3CCN2c2ccccc21`, the EC50 was greater than 200 µM and the IC50 came to 26.9 µM.
The corresponding values for `Cc1ccc(C)c(NC(=O)C(=O)C2C(=O)C3=C(CC2(C)C)Nc2ccccc2S3)c1` (stereo unspecified) are greater than 85.1 µM and greater than 85.1 µM.
The corresponding values for `O=c1[nH]c(=O)n(C2COC(CO)C2O)cc1F` (stereo unspecified) are greater than 200 µM and 6.03 µM.
The corresponding values for `O=C(c1ccco1)[N+]1=Cc2[nH]c3ccccc3c2CC1` are greater than 170 µM and 97.7 µM.
Consider `N#C/C(=C\c1ccc(O)c(O)c1)C(=O)NCCCCCCCCNC(=O)/C(C#N)=C/c1ccc(O)c(O)c1`, for which the EC50 was greater than 200 µM and the IC50 came out at 13.8 µM.
On to `CCOC(=O)c1sc2c(c1OC(=O)c1ccc(OC)cc1)c(=O)n(-c1ccccc1)c(=S)n2-c1ccccc1`, for which the EC50 was greater than 200 µM and the IC50 came out at 38.9 µM.
The corresponding values for `COc1c(OC)c(OC)c(-c2cc(=O)c3c(OC)c(OC)c(OC)c(OC)c3o2)c(OC)c1OC` are greater than 200 µM and 56.2 µM.
On to `Cn1c(=O)c2c(nc(N/N=C/c3cccc(Br)c3)n2C)n(C)c1=O`, for which the EC50 was greater than 200 µM and the IC50 is greater than 200 µM.
Regarding `Cn1c(=O)c2[nH]c(Nc3cccc(Cl)c3)nc2n(C)c1=O`, the EC50 is greater than 200 µM and the IC50 worked out at 10.7 µM.
On to `C/C(=N\N=C(/[O-])c1ccccc1)c1cccc(/C(C)=N/N=C(\[O-])c2ccccc2)n1.O.[Cu+2]`, for which the EC50 is greater than 100 µM and the IC50 came to 18.2 µM.
For `N#Cc1ncoc1N` the same measures were greater than 200 µM and greater than 200 µM.
With `COCC(=O)OC1CCn2c1nc1c2C(=O)C(C)=C(NC(C)=O)C1=N` (stereo unspecified), the EC50 is greater than 200 µM and the IC50 amounted to 2.88 µM.
For `Cc1ccc(S(=O)(=O)Oc2ccc3oc4c(CO)ccc(NCCN(C)C)c4c(=O)c3c2)cc1` the same measures were greater than 38.9 µM and 6.92 µM.
For `Cc1ccc(OCC2OC(n3cnc4c(Br)nc(Br)nc43)CC2Oc2ccc(C)cc2)cc1` (stereo unspecified) the same measures were greater than 200 µM and 2.09 µM.
For `CC(=O)N(C)SCC(NC(=O)C(Cc1ccccc1)NC(=O)OCc1ccccc1)C(=O)NC(Cc1ccccc1)C(=O)NC(Cc1cn(C=O)c2ccccc12)C(=O)NC(CCCCNC(=O)OCc1ccccc1)C(=O)NC(C(=O)NC(CSN(C)C(C)=O)/C(O)=N\O)C(C)OCc1ccccc1` (stereo unspecified) (Cbz-F[X3]FW(For)K(Cbz)T(Bn)-X20; configuration not given here), the result was inactive.
Regarding `C=C=C(CC(CC(=C)Br)(C(=O)OC)C(=O)OC)S(=O)(=O)c1ccccc1`, the EC50 was greater than 200 µM and the IC50 was 1.45 µM.
With `O=C(NCc1ccccc1)c1cc2ccc(O)c(O)c2cn1`, the EC50 was greater than 100 µM; the IC50 was 1.7 µM and > 6.31 µM.
For `CC(=O)OCC(=O)[C@@]1(O)CC[C@H]2[C@@H]3CCC4=CC(=O)C=C[C@]4(C)[C@@]3(F)[C@@H](O)C[C@@]21C`, the outcome was inactive.
Consider `O=C(OCc1ccccc1)N1CC[C@@H](O)[C@@H](CNC23CC4CC(CC(C4)C2)C3)C1`, for which the EC50 was greater than 631 µM and the IC50 was 23.4 µM.
Take `COc1cc(C)c2c(c1C)OC(=O)c1c(C)c(Cl)c(O)c(C=O)c1O2`: the EC50 is greater than 49 µM and the concentration for half-maximal inhibition (IC50) was greater than 49 µM.
Turning to `NCCS/C=C\C(=O)OCc1ccc(Br)cc1`, the EC50 was greater than 708 µM and the IC50 came out at 64.6 µM.
`C[n+]1c(-c2ccc(/C=N\Nc3ccnc(N/N=C/c4ccc(-c5cn6ccsc6[n+]5C)cc4)n3)cc2)cn2ccsc21`: the 50% effective concentration (EC50) is greater than 41.7 µM and the IC50 was found to be 28.8 µM.
Turning to `COC1OC(COC(=O)c2ccccc2)C(OC(=O)c2ccccc2)C1NC(C)=O` (stereo unspecified), the EC50 is greater than 200 µM and the IC50 is greater than 200 µM.
For the compound `c1ccc2c3nnc(c2c1)SCCSCCCSCCS3`, the EC50 is greater than 200 µM and the IC50 was greater than 200 µM.
As for `CC(=O)CC(N)=O`, the result was inactive.
`COc1cc(C2c3cc4c(cc3OC(NNS(=O)(=O)c3ccc(C)cc3)C2C)OCO4)cc(OC)c1O` (stereo unspecified): the result was inactive.
`Nc1nc(-c2ccco2)cc(-c2ccc(CO)o2)n1`: the EC50 is greater than 195 µM and the IC50 turned out to be 107 µM.
For `CC(C(=O)c1ccc(Cl)cc1)/C(=N/NC(=O)NN)C(=O)Nc1cccc(C(F)(F)F)c1` (stereo unspecified), the EC50 was greater than 79.4 µM and the IC50 was greater than 79.4 µM.
`c1ccc(SC(CCCCOC2CCCCO2)Sc2ccccc2)cc1` (stereo unspecified): the outcome was inactive.
Take `CCOC(=O)CNC(=O)C(C)NC(=O)C(NC(=O)OCc1ccccc1)C(C)C` (stereo not drawn) (Cbz-Val-Ala-Gly-OEt; configuration not given here): the EC50 was greater than 200 µM and the IC50 is 115 µM.
For `O=C1NC2(CCCCC2)OC12CCCCC2` the same measures were greater than 6.46 µM and greater than 6.46 µM.

These data come from PubChem BioAssay AID179 (DTP/NCI, 2004).
